{"source": "paper PMC9057582", "about": "“HIF inhibitor 32-134D eradicates murine hepatocellular carcinoma in combination with anti-PD1 therapy” (The Journal of Clinical Investigation, 2022)", "key": {"[1]": {"tested_on": "HIF transcriptional activity", "assay": "HIF-dependent luciferase reporter assay (FLuc/RLuc ratio) in Hep3B-c1 cells", "type": "cell-based", "details": "Homo sapiens, 1% O2, 24 hours, read-out: IC50, inhibition of HIF-dependent reporter gene expression", "excerpt": "The NCI CellMiner database contains expression data for over 25,000 mRNAs in 60 human cancer cell lines that have been exposed to more than 20,000 chemical compounds ([49]). We searched CellMiner for a compound that induced changes in gene expression that were highly correlated with those induced by acriflavine, but which was structurally unrelated to acriflavine. Compounds that satisfied the above criteria were identified and subsequently analyzed in Hep3B-c1 cells ([50]), which are stably transfected with HIF-dependent reporter plasmid p2.1, in which firefly luciferase (FLuc) coding sequences are located downstream from a hypoxia-response element (HRE) and a basal SV40 promoter; and control reporter pSVR, in which Renilla luciferase (RLuc) coding sequences are downstream of the basal SV40 promoter only (Figure 1A). The FLuc/RLuc ratio in cells exposed to 1% O2 for 24 hours is a specific measure of HIF-dependent gene expression.\nFigure 1 Identification of HIF inhibitors. (A) Hep3B-c1 cells were stably transfected with firefly luciferase (FLuc) reporter p2.1, which contains a hypoxia-response element (HRE), and Renilla luciferase (RLuc) reporter pSVR. (B) Hep3B-c1 cells were incubated with vehicle (Veh; 0.1% DMSO; blue bars) or 10 μM 32-134D (red bars) at 20% O2 (n = 6) or 1% O2 (n = 12) for 24 hours. Cell lysates were assayed for Fluc/Rluc activity (mean ± SEM); *P < 0.05 versus vehicle (χ^2 test). (C) Chemical structures and IC50 values for HIF inhibitors. (D and E) Hep3B cells were exposed to 20% O2 with vehicle, or 1% O2 with vehicle (blue bar), 32-134D (red bars), 33-063 (green bars), or PT2385 (brown bars) for 24 hours and CA9 (D) and EPO (E) mRNAs were quantified by RT-qPCR. […] (F) Hep3B cells were exposed to 20% or 1% O2 in the presence of vehicle or 1% O2 in the presence of 5 μM 32-134D (n = 3 each) for 24 hours. […]\nHep3B-c1 cells ([50]) were seeded on 24-well plates. […] FLuc/RLuc ratios were determined using the Dual Luciferase Reporter Assay System (Supplemental Table 6) and the VICTOR Nivo plate reader (PerkinElmer)."}, "[2]": {"tested_on": "Hepa1-6 HCC tumors", "assay": "Hepa1-6 tumor growth and eradication in syngeneic C57L mice", "type": "in vivo", "procedure": "To test whether 32-134D inhibits HCC growth in an immunocompetent mouse model, we injected Hepa1-6 HCC cells into the flank of syngeneic C57L mice ([54]). When tumors became palpable (treatment day 1), mice received intraperitoneal injections of 32-134D (40 mg/kg/day) versus vehicle control, or anti-PD1 antibody versus IgG2a isotype control (200 μg on days 1, 4, 7, 10, 13, and 16), or both 32-134D and anti-PD1. Tumors grew very rapidly in all mice treated with vehicle or IgG2a, necessitating euthanasia on or before day 24 (Figure 4, A and C). Tumors regressed in 5 out of 12 mice treated with anti-PD1, but 2 tumors recurred after the last antibody treatment (on day 16) for a tumor eradication rate of only 25% (Figure 4D). […] Thus, addition of 32-134D increased the percentage of mice with a complete response to anti-PD1 immune checkpoint blockade from 25% to 67% (Figure 4F).\nFigure 4 Effect of anti-PD1 and 32-134D on Hepa1-6 tumor growth in syngeneic mice. […]\nFemale nude mice (NCI Athymic NCr-nu/nu) and male C57L mice were purchased from Charles River and The Jackson Laboratory, respectively. Hep3B (8 × 10^6) and Hepa1-6 (1 × 10^7) cells were resuspended in PBS and Matrigel (1:1, vol/vol) and implanted subcutaneously in 6- to 8-week-old mice, and tumor volume was calculated as V = abc × 0.52. […]"}}, "data": [{"smiles": "Brc1ccc2c(-c3csc(-c4c[nH]c5c(Br)cccc45)n3)c[nH]c2c1", "note": "[Compound 32-134D]", "values": [{"measurement": "IC50", "setting": "[1]", "value": 2500, "unit": "nM"}, {"measurement": "tumor growth", "setting": "[2]; 40 mg/kg/day ip", "value": "inhibition of tumor growth in all mice"}, {"measurement": "mice with tumor eradication", "setting": "[2]; 12 mice per group", "value": "4 of 12"}]}]}
